Results: the supplement of paper PMC10307832

What was measured:
Assay in all cases: relative viability (nuclei count vs DMSO), 5 days (fraction); higher = more cells survive
[1] = compound: O=C(Nc1c[nH]nc1-c1nc2ccc(CN3CCOCC3)cc2[nH]1)NC1CC1 [AT9283] + CC(=O)c1c(C)c2cnc(Nc3ccc(N4CCNCC4)cn3)nc2n(C2CCCC2)c1=O [Palbociclib] (partner 0.5 µM)
Summary of the method: (§1)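 One day after seeding in 1536-well plates, lung cancer cell lines were dosed by pin tool. Dosing was either single-drug or a fixed anchor-drug dose plus five library-drug doses (not always all listed) in √10 steps. After 5 days, nuclei were stained in one fix-and-stain step and counted on 4× images, and relative viability is the nuclei count of treated wells over that of vehicle wells, given as the median of duplicate plates.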

[2] = compound: O=C(Nc1c[nH]nc1-c1nc2ccc(CN3CCOCC3)cc2[nH]1)NC1CC1 [AT9283] + C[C@@H](Oc1cc(-c2cnn(C3CCNCC3)c2)cnc1N)c1c(Cl)ccc(F)c1Cl [Crizotinib] (partner 1 µM)
Summary of the method: as §1

[3] = compound: O=C(Nc1c[nH]nc1-c1nc2ccc(CN3CCOCC3)cc2[nH]1)NC1CC1 [AT9283] + Cc1nc(NC(=O)N2CCC[C@H]2C(N)=O)sc1-c1ccnc(C(C)(C)C(F)(F)F)c1 [Alpelisib] (partner 2 µM)
Summary of the method: as §1

[4] = compound: O=C(Nc1c[nH]nc1-c1nc2ccc(CN3CCOCC3)cc2[nH]1)NC1CC1 [AT9283] + Cc1nc(Nc2ncc(C(=O)Nc3c(C)cccc3Cl)s2)cc(N2CCN(CCO)CC2)n1 [Dasatinib] (partner 0.075 µM)
Summary of the method: as §1

[5] = compound: O=C(Nc1c[nH]nc1-c1nc2ccc(CN3CCOCC3)cc2[nH]1)NC1CC1 [AT9283] + O=C(c1cc(Cc2n[nH]c(=O)c3ccccc23)ccc1F)N1CCN(C(=O)C2CC2)CC1 [Olaparib] (partner 8 µM)
Summary of the method: as §1

NCI-H441
relative viability ([1]; first compound 0.003 µM): 0.247 | relative viability ([1]; first compound 0.03 µM): 0.236 | relative viability ([1]; first compound 0.09487 µM): 0.205 | relative viability ([1]; first compound 0.3 µM): 0.175 | relative viability ([2]; first compound 0.003 µM): 0.614 | relative viability ([2]; first compound 0.03 µM): 0.635 | relative viability ([2]; first compound 0.09487 µM): 0.35 | relative viability ([2]; first compound 0.3 µM): 0.234 | relative viability ([3]; first compound 0.003 µM): 0.717 | relative viability ([3]; first compound 0.03 µM): 0.641 | relative viability ([3]; first compound 0.09487 µM): 0.235 | relative viability ([3]; first compound 0.3 µM): 0.198 | relative viability ([4]; first compound 0.003 µM): 0.567 | relative viability ([4]; first compound 0.03 µM): 0.49 | relative viability ([4]; first compound 0.09487 µM): 0.318 | relative viability ([4]; first compound 0.3 µM): 0.209 | relative viability ([5]; first compound 0.003 µM): 0.557 | relative viability ([5]; first compound 0.03 µM): 0.504 | relative viability ([5]; first compound 0.09487 µM): 0.417 | relative viability ([5]; first compound 0.3 µM): 0.319
